Experimental data reported in patent US7781394B2 (Institut Pasteur, priority 2006, dated 2010).
Where two headings read alike, the source gives them in different places.

Experiments:
Type in all cases: biochemical
[1] = molecular target: T1, His-RCL (deoxynucleoside 5′-monophosphate N-glycosidase) (Rattus norvegicus, UniProt O35820); assay: Kinetic parameters of His-RCL (wild-type) with dNMP substrates, initial velocity measurements
T1 construct: made in house; host or cells: E. coli Bli5 (BL21 (DE3) pDIA17), plasmid pET28aRcl
T1 sequence (O35820 1-163): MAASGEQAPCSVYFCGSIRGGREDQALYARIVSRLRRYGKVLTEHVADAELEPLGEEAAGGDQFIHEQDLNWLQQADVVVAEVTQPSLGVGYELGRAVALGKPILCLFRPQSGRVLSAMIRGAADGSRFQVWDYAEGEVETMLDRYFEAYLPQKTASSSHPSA
Protocol: The enzyme activity was determined either spectrophotometrically by following one of the reaction products, hypoxanthine or deoxyribose 5-phosphate, or by HPLC separation and UV detection of the released nucleobase and the remaining substrate. a) dIMP was used as a substrate and the hypoxanthine released oxidized to uric acid by xanthine oxidase. […] The decrease in absorbance at 340 nm was followed on a Amersham Biosciences Ultrospec 3100 pro spectrophotometer, using a millimolar absorbance coefficient of 6.22. […] Initial velocity experiments were carried out at variable concentrations of the six deoxynucleoside 5'-monophosphate: dAMP, dCMP, dGMP, dIMP, dTMP and dUMP (Table 1).

RCL [2] = molecular target: T2, RCL (Rattus norvegicus, UniProt O35820); assay: pH dependence of RCL activity at saturating substrate; conditions: for % of the maximal activity: pH 7.0; for % of the enzyme activity remained: pH 8.0; for pH optimum: saturating concentrations of substrate
T2 construct: made in house; host or cells: E. coli Bli5 (BL21 (DE3) pDIA17); pET24dRcl (untagged) or pET28aRcl (His-tagged)
T2 sequence (O35820 1-163): T1 sequence (O35820 1-163)
Protocol: Catalytic properties of the recombinant proteins. […] 50% of the maximal activity was still observed at pH 7.0 in the case of dCMP while it was only 20% in the case of dGMP. In both cases at pH 8.0, only 10% of the enzyme activity remained. Several metals were tested for their ability to stimulate or inhibit the reaction: Ca^2+, Mg^2+, Zn^2+, Na^+, and K^+.

RCL [3] = molecular target: T2, RCL; assay: Compounds tested as substrate or inhibitor of RCL enzyme activity (dGMP hydrolysis); conditions: for substrate or inhibitor of the enzyme activity: versus dGMP as substrate; for Ki: competitive for dGMP, double reciprocal plot
Protocol: The enzyme activity was determined either spectrophotometrically by following one of the reaction products, […] or deoxyribose 5-phosphate, or by HPLC separation and UV detection of the released nucleobase and the remaining substrate.
The initial velocity of the reaction was measured either at variable concentration of dGMP both in the absence and presence of inhibitors, or at fixed concentration of dGMP and variable concentrations of inhibitors allowing the testing of the nature of the inhibition.

[4] = Table 1, substrate of His-RCL, five concentrations
[5] = Table 3, additional substrates of His-RCL, in 1/s
[6] = Table 3, additional substrates of His-RCL, read-out: Km
[7] = purine deoxynucleotides, read-out: Km of RCL
[8] = pyrimidine deoxynucleotides, read-out: Km of RCL

## Nc1nc2c(ncn2[C@H]2C[C@H](O)[C@@H](COP(=O)(O)O)O2)c(=O)[nH]1 [dGMP]
[1]
  Vmax: 0.09 U. mg^−1
[1]; [4]
  kcat: 0.0297 s⁻¹
[1]; Table 2, Wt His-RCL, dGMP 250 μM to 20 mM
  kcat: 0.0298 s⁻¹
[1]; [5]
  kcat: 0.033
[1]; [6]
  Km: 77 ± 20 µM
[1]; corresponds to Vmax
  kcat: 0.0268 s⁻¹
[1]; kcat/Km comparison
  times more efficiently cleaved than dAMP: 20 times
  times more efficiently cleaved than dIMP: 40 times
[1]; [7]
  Km: 50 µM
RCL [2]
  % of the maximal activity: 20%
  % of the enzyme activity remained: 10%
  pH optimum: ~6.0 pH

## CCNc1nc2c(ncn2[C@H]2C[C@H](O)[C@@H](COP(=O)(O)O)O2)c(=O)[nH]1 [N2-ethyl-dGMP]
[1]; [5]
  kcat: 0.0528
[1]; [6]
  Km: 71 ± 8 µM

## Nc1nc2c(ncn2[C@H]2C[C@H](OP(=O)(O)O)[C@@H](CO)O2)c(=O)[nH]1 [2′-deoxyguanosine 3′-monophosphate]
RCL [3]
  substrate or inhibitor of the enzyme activity: neither a substrate nor an inhibitor

## NC1=NC(=O)C2=NC(=O)N([C@H]3C[C@H](O)[C@@H](COP(=O)(O)O)O3)C2=N1 [8-oxo-dGMP, 8-oxo-deoxyguanosine 5′-monophosphate]
RCL [3]
  substrate or inhibitor of the enzyme activity: neither a substrate nor an inhibitor

## Nc1ncnc2c1ncn2[C@H]1C[C@H](O)[C@@H](COP(=O)(O)O)O1 [dAMP]
[1]; [4]
  kcat: 0.0066 s⁻¹
[1]; [7]
  Km: 250 µM

## O=c1ccn([C@H]2C[C@H](O)[C@@H](COP(=O)(O)O)O2)c(=O)[nH]1 [dUMP]
[1]; [4]
  kcat: 0.158 s⁻¹
[1]; [8]
  Km: 15000 µM

## Nc1nc2c(ncn2[C@@H]2O[C@H](COP(=O)(O)O)[C@@H](O)[C@H]2O)c(=O)[nH]1 [GMP]
RCL [3]
  Ki: 20 µM
  substrate or inhibitor of the enzyme activity: competitive inhibitors

## Cc1cn([C@H]2C[C@H](O)[C@@H](COP(=O)(O)O)O2)c(=O)[nH]c1=O [dTMP]
[1]; [8]
  Km: > 50000 µM

## CSc1nc(N)nc2c1ncn2[C@@H]1O[C@H](COP(=O)(O)O)[C@@H](O)[C@H]1O
RCL [3]
  Ki: 10 µM
  substrate or inhibitor of the enzyme activity: competitive inhibitors

## C[n+]1cn([C@H]2C[C@H](O)[C@@H](COP(=O)(O)O)O2)c2nc(N)[nH]c(=O)c21 [N7-methyl-dGMP]
[1]; [5]
  kcat: 2.376
[1]; [6]
  Km: 470 ± 68 µM

## COc1nc(N)nc2c1ncn2[C@H]1C[C@H](O)[C@@H](COP(=O)(O)O)O1 [06-methyl-dGMP]
[1]; [5]
  kcat: 0.033
[1]; [6]
  Km: 61 ± 16 µM

## Nc1ccn([C@H]2C[C@H](O)[C@@H](COP(=O)(O)O)O2)c(=O)n1 [dCMP]
[1]; [4]
  kcat: 0.0231 s⁻¹
[1]; [8]
  Km: 4000 µM
RCL [2]
  % of the maximal activity: 50%
  % of the enzyme activity remained: 10%
  pH optimum: ~6.0 pH
